Reference: patent US10316050B2, “PT (IV) complexes containing 4,4′-disubstituted-2,2′-bipyridyl and their use in cancer therapy” (THE BOARD OF REGENTS OF THE NEVADA SYSTEM OF HIGHER …, priority 2014, dated 2019)
Read-outs that look alike come from different tables or passages of the source. Blank lines part the entries; values can stand above or below the molecule they belong to.

Assays:
Format in all cases: cell-based, human
[1] = test system: A549 cells; assay: Hoechst/PI staining, confocal microscopy, A549
Description: Cells (100,000 to 125,000) were seeded into 35 mm dishes and incubated for 48 hours at 37° C. The cells were treated with control, Pt(IV)-4C, or Pt(IV)-5C, and while in the dark, the cells were washed 2× with 1 mL PBS. After washing, 1 mL of a 2 μg/mL Hoechst 33342 and 10 μg/mL PI solution (in PBS) was added, and the cells were incubated for 15 minutes at room temperature. Images were acquired within 5 minutes with a Nikon A1R confocal laser scanning microscopy system (CLSM) mounted on a Nikon Eclipse Ti. At least three random areas on each dish were imaged.
Analysis of Hoechst (Ho) and PI staining by confocal microscopy also was performed to detect cell death. PI stains cells with membrane damage, whereas Ho stains both live and apoptotic cells (although apoptotic cells have more intense Ho fluorescence). […] Additionally, unlike A549, the PI positive cells in Pt(IV)-4C treated cells were higher than Pt(IV)-5C treated cells.

[2] = test system: PC-3 prostate cancer cells; assay: MTS cell viability assay, PC-3; conditions: for EC50: read-out: EC50 (effective concentration that resulted in 50% cell viability)
Summary of the method: (§1)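 SK-BR-3 cells grown in MEM, DU145 and PC-3 cells in RPMI-1640, each with 10% FBS and 25 mM HEPES pH 7.4, plated 2 days to ~50% confluence. Exposure to increasing Pt complex or cisplatin/carboplatin concentrations for 1 h (washed, then 2 days recovery) or 48 h continuous. MTS absorbance at 490 nm after 4 h; viability as percent of control.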

[3] = test system: DU145 prostate cancer cells; conditions: for EC50: read-out: EC50 (effective concentration that resulted in 50% cell viability)
Summary of the method: as §1

[4] = test system: A549 lung cancer cells; assay: MTS cell viability assay, A549; conditions: for EC50: read-out: EC50 (effective concentration that resulted in 50% cell viability)
Summary of the method: (§2)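 Read-out is MTS absorbance at 490 nm after 4 h at 37 °C, expressed as percent of solvent-treated control. Prior exposure: either 1 h drug pulse with PBS washes and 2-day recovery, or 48 h without washing. Cells at ~50% confluence in MEM/10% FBS/HEPES pH 7.4.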

[5] = test system: MDA-MB-231 breast cancer cells; assay: MTS cell viability assay, MDA-MB-231; conditions: read-out: EC50 (effective concentration that resulted in 50% cell viability)
Summary of the method: as §2

[6] = test system: T-47D breast cancer cells; assay: MTS cell viability assay, T-47D
Summary of the method: as §2

[7] = test system: SK-BR-3 breast cancer cells; assay: MTS cell viability assay, SK-BR-3; conditions: for EC50: read-out: EC50 (effective concentration that resulted in 50% cell viability)
Summary of the method: as §1

[8] = test system: H520 lung cancer cells; assay: MTS cell viability assay, H520; conditions: read-out: EC50 (effective concentration that resulted in 50% cell viability)
Summary of the method: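 Viability by MTS colorimetry (A490, 4 h incubation) as % of solvent control, after 1 h pulse plus 2-day recovery or 48 h continuous drug exposure.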

[9] = test system: ZR-75-1 breast cancer cells; assay: MTS cell viability assay, ZR-75-1; conditions: read-out: EC50 (effective concentration that resulted in 50% cell viability)
Summary of the method: as §2

[10] = test system: HCC38 breast cancer cells; assay: MTS cell viability assay, HCC38; conditions: read-out: EC50 (effective concentration that resulted in 50% cell viability)
Summary of the method: as §2

[11] = test system: MCF-7 breast cancer cells; assay: MTS cell viability assay, MCF-7; conditions: for EC50: read-out: EC50 (effective concentration that resulted in 50% cell viability)
Summary of the method: as §2

[12] = MDA-MB-231, 1 h treatment, Table 3
[13] = 1 h treatment, Table 3, read-out: EC50 (effective concentration that resulted in 50% cell viability)
[14] = 48 h, Table 5, read-out: EC50 (effective concentration that resulted in 50% cell viability)
[15] = SK-BR-3, 1 h treatment, Table 3
[16] = ZR-75-1, 1 h treatment, Table 3

Molecule: CC(=O)[O][Pt]([Cl])([Cl])[O]C(C)=O.CCCCCOc1ccnc(-c2cc(OCCCCC)ccn2)c1 [Pt(IV)-5C, [Pt(IV)Cl2(OAc)2(4,4′-dipentoxy-2,2′-bipyridine)]]
Hoechst (Ho) fluorescence compared to control [1]: increased Ho fluorescence
PI fluorescence compared to control [1]: no difference
EC50 ([2]; PC-3, 1 h treatment, Table 3): 1.7 ± 0.2 µM
EC50 ([2]; PC-3, 48 h, Table 5): 0.5 ± 0.2 µM
EC50 ([3]; DU145, 1 h treatment, Table 3): 1 ± 1 µM
EC50 ([3]; DU145, 48 h, Table 5): 0.34 ± 0.02 µM
EC50 ([4]; A549, 1 h treatment, Table 3): 6.6 ± 0.3 µM
EC50 ([4]; A549, 48 h, Table 5): 2.2 ± 0.1 µM
EC50 [5, 12]: 1.8 ± 0.1 µM
EC50 ([5]; MDA-MB-231, 48 h, Table 5): 0.26 ± 0.01 µM
EC50 [6, 13]: 2.3 ± 0.3 µM
EC50 [6, 14]: 0.248 ± 0.001 µM
EC50 [7, 15]: 1.3 ± 0.6 µM
EC50 ([7]; SK-BR-3, 48 h, Table 5): 0.3 ± 0.03 µM
EC50 ([8]; H520, 1 h treatment, Table 3): 3 ± 1 µM
EC50 ([8]; H520, 48 h, Table 5): 1 ± 0.3 µM
EC50 [9, 16]: 1.6 ± 0.1 µM
EC50 ([9]; ZR-75-1, 48 h, Table 5): 0.55 ± 0.07 µM
EC50 ([10]; HCC38, 1 h treatment, Table 3): 3 ± 1 µM
EC50 ([10]; HCC38, 48 h, Table 5): 2.1 ± 0.3 µM
EC50 ([11]; MCF-7, 1 h treatment, Table 3): 2.9 ± 0.13 µM
EC50 ([11]; MCF-7, 48 h, Table 5): 2 ± 0.1 µM

EC50 ([2]; PC-3, 1 h treatment, Table 2): 200 ± 20 µM
EC50 ([2]; PC-3, 1 h treatment, Table 3): 200 ± 20 µM
EC50 ([2]; PC-3, 48 h, Table 5): 30 ± 1 µM
EC50 ([2]; PC-3, 48 h treatment, Table 4): 30 ± 1 µM
EC50 ([3]; DU145, 1 h treatment, Table 2): 400 ± 100 µM
EC50 ([3]; DU145, 1 h treatment, Table 3): 400 ± 100 µM
EC50 ([3]; DU145, 48 h, Table 5): 64 ± 8 µM
EC50 ([3]; DU145, 48 h treatment, Table 4): 64 ± 8 µM
EC50 ([4]; A549, 1 h treatment, Table 2): 900 ± 200 µM
EC50 ([4]; A549, 1 h treatment, Table 3): 900 ± 200 µM
EC50 ([4]; A549, 48 h, Table 5): 500 ± 100 µM
EC50 ([4]; A549, 48 h treatment, Table 4): 500 ± 100 µM
EC50 ([5]; MDA-MB-231, 1 h treatment, Table 2): 50 ± 4 µM
EC50 [5, 12]: 50 ± 4 µM
EC50 ([5]; MDA-MB-231, 48 h, Table 5): 21 ± 3 µM
EC50 ([5]; MDA-MB-231, 48 h treatment, Table 4): 21 ± 3 µM
EC50 ([6]; 1 h treatment, Table 2, read-out: EC50 (effective concentration that resulted in 50% cell viability)): 900 ± 100 µM
EC50 [6, 13]: 900 ± 100 µM
EC50 [6, 14]: 35 ± 6 µM
EC50 ([6]; 48 h treatment, Table 4, read-out: EC50 (effective concentration that resulted in 50% cell viability)): 35 ± 6 µM
EC50 ([7]; SK-BR-3, 1 h treatment, Table 2): 420 ± 80 µM
EC50 [7, 15]: 420 ± 80 µM
EC50 ([7]; SK-BR-3, 48 h, Table 5): 23 ± 8 µM
EC50 ([7]; SK-BR-3, 48 h treatment, Table 4): 23 ± 6 µM
EC50 ([8]; H520, 1 h treatment, Table 2): 200 ± 17 µM
EC50 ([8]; H520, 1 h treatment, Table 3): 200 ± 17 µM
EC50 ([8]; H520, 48 h, Table 5): 24 ± 2 µM
EC50 ([8]; H520, 48 h treatment, Table 4): 24 ± 2 µM
EC50 ([9]; ZR-75-1, 1 h treatment, Table 2): 260 ± 10 µM
EC50 [9, 16]: 260 ± 10 µM
EC50 ([9]; ZR-75-1, 48 h, Table 5): 30 ± 8 µM
EC50 ([9]; ZR-75-1, 48 h treatment, Table 4): 30 ± 8 µM
EC50 ([10]; HCC38, 1 h treatment, Table 2): 300 ± 30 µM
EC50 ([10]; HCC38, 1 h treatment, Table 3): 300 ± 30 µM
EC50 ([10]; HCC38, 48 h, Table 5): 30 ± 8 µM
EC50 ([10]; HCC38, 48 h treatment, Table 4): 30 ± 8 µM
EC50 ([11]; MCF-7, 1 h treatment, Table 2): 900 ± 60 µM
EC50 ([11]; MCF-7, 1 h treatment, Table 3): 900 ± 100 µM
EC50 ([11]; MCF-7, 48 h, Table 5): 34 ± 1 µM
EC50 ([11]; MCF-7, 48 h treatment, Table 4): 35 ± 1 µM
Molecule: [NH2][Pt]([NH2])([Cl])[Cl] [CDDP, Cisplatin, reference compound]
anti-proliferative activity compared to cisplatin (in words) ([2]; PC-3, one and 48 hours treatment (FIG. 8I)): concentration dependent decreased in cell viability
effect on cell viability (in words) ([3]; DU145, 1 hour treatment (FIG. 8A, top), up to 1 mM carboplatin, 100 μM Pt(IV)-1C, 50 μM Pt(IV)-2C): concentration dependent decrease in cell viability
anti-proliferative activity compared to cisplatin (in words) ([3]; DU145, one and 48 hours treatment (FIG. 8H)): concentration dependent decreased in cell viability
anti-proliferative activity compared to cisplatin (in words) ([7]; SK-BR-3, one and 48 hours treatment (FIG. 8G)): concentration dependent decreased in cell viability

Molecule: [Pt(IV)Cl2(OAc)2(4,4′-dibutoxy-2,2′-bipyridine)] [Pt(IV)-4C]
Hoechst (Ho) fluorescence compared to control [1]: increased Ho fluorescence
PI fluorescence compared to control [1]: increased PI positive cells
EC50 ([2]; PC-3, 1 h treatment, Table 3): 5 ± 3 µM
EC50 ([2]; PC-3, 48 h, Table 5): 1.1 ± 0.4 µM
EC50 ([3]; DU145, 1 h treatment, Table 3): 8 ± 7 µM
EC50 ([3]; DU145, 48 h, Table 5): 0.9 ± 0.2 µM
effect on cell viability (in words) ([4]; A549, 1 hour treatment, at the concentrations tested (FIG. 8E)): did not have any effect
EC50 ([4]; A549, 1 h treatment, Table 3): > 25 µM
EC50 ([4]; A549, 48 h, Table 5): 14 ± 1 µM
EC50 [5, 12]: 2.8 ± 0.1 µM
EC50 ([5]; MDA-MB-231, 48 h, Table 5): 1 ± 0.2 µM
EC50 [6, 13]: 10 ± 1 µM
EC50 [6, 14]: 0.33 ± 0.07 µM
EC50 [7, 15]: 4 ± 0.7 µM
EC50 ([7]; SK-BR-3, 48 h, Table 5): 0.44 ± 0.02 µM
EC50 ([8]; H520, 1 h treatment, Table 3): 13 ± 5 µM
EC50 ([8]; H520, 48 h, Table 5): 2.2 ± 0.1 µM
EC50 [9, 16]: 2.9 ± 0.3 µM
EC50 ([9]; ZR-75-1, 48 h, Table 5): 0.7 ± 0.2 µM
EC50 ([10]; HCC38, 1 h treatment, Table 3): 17 ± 3 µM
EC50 ([10]; HCC38, 48 h, Table 5): 2.1 ± 0.2 µM
effect on cell viability (in words) ([11]; MCF-7, 1 hour treatment, at the concentrations tested (FIG. 8F)): did not have any effect
EC50 ([11]; MCF-7, 1 h treatment, Table 3): > 25 µM
EC50 ([11]; MCF-7, 48 h, Table 5): 2.2 ± 0.1 µM
